Test results taken from ChEMBL document CHEMBL6087436, “The novel β-hairpin antimicrobial peptide D-G(RF)3 demonstrates exceptional antibacterial efficacy” (Eur J Med Chem, 2025).
The source made the active and inactive calls. The rule behind the calls is not given here.

Experiments:
[1] = tested on: Pseudomonas aeruginosa; experiment: Antibacterial activity against Pseudomonas aeruginosa ATCC 27853 in presence of 1 mM MgCl2; format: functional, organism-based
[2] = tested on: Pseudomonas aeruginosa; experiment: Antibacterial activity against Pseudomonas aeruginosa ATCC 27853 in presence of 4 uM FeCl3; format: functional, organism-based
[3] = Stability of compound in mouse plasma assessed as degradation of compound by measuring half life incubated for 48 hrs by RP-HPLC analysis; format: ADME, cell-free
[4] = tested on: Staphylococcus aureus; experiment: Synergistic antibacterial activity against Staphylococcus aureus assessed as fractional inhibitory concentration index in presence of ciprofloxacin incubated for 18 hrs by checkerboard method; format: functional
[5] = tested on: Klebsiella pneumoniae; experiment: Bactericidal activity against Klebsiella pneumoniae ATCC 700603 assessed as bacterial eradication by measuring bacterial counts at 1 times MIC measured after 30 mins by Time killing assay relative to control; format: functional; settings: 0.5 h
[6] = tested on: Klebsiella pneumoniae; experiment: Bactericidal activity against Klebsiella pneumoniae ATCC 700603 assessed as bacterial eradication by measuring bacterial counts at 2 times MIC measured after 15 mins by Time killing assay relative to control; format: functional; settings: 0.25 h
[7] = tested on: Pseudomonas aeruginosa; experiment: Inhibition of biofilm formation in Pseudomonas aeruginosa ATCC 27853 incubated for 24 hrs by crystal violet staining based analysis; format: functional, organism-based; settings: dose 1-32 µM
[8] = tested on: Escherichia coli; experiment: Inhibition of biofilm formation in Escherichia coli ATCC 25922 at 1 uM incubated for 24 hrs by crystal violet staining based analysis; format: functional, organism-based
[9] = tested on: Staphylococcus aureus; experiment: Synergistic antibacterial activity against Staphylococcus aureus assessed as fractional inhibitory concentration index in presence of polymyxin B incubated for 18 hrs by checkerboard method; format: functional
[10] = tested on: Escherichia coli; experiment: Synergistic antibacterial activity against Escherichia coli assessed as fractional inhibitory concentration index in presence of kanamycin incubated for 18 hrs by checkerboard method; format: functional
[11] = tested on: Pseudomonas aeruginosa; experiment: Synergistic antibacterial activity against Pseudomonas aeruginosa assessed as fractional inhibitory concentration index in presence of polymyxin B incubated for 18 hrs by checkerboard method; format: functional
[12] = tested on: Cell membrane; experiment: Induction of cell membrane permeability in Staphylococcus aureus assessed as bacterial dissolution at 2 times MIC measured after 30 mins by SEM analysis; format: subcellular
[13] = tested on: Cell membrane; experiment: Induction of cell membrane permeability in Staphylococcus aureus assessed as bacterial dissolution at 2 times MIC measured after 2 hrs by SEM analysis; format: subcellular
[14] = tested on: Cell membrane; experiment: Induction of cell membrane permeability in Staphylococcus aureus assessed as bacterial aggregation at 2 times MIC measured after 30 mins by SEM analysis; format: subcellular
[15] = tested on: Cell membrane; experiment: Induction of cell membrane permeability in Staphylococcus aureus assessed as bacterial aggregation into clusters at 2 times MIC measured after 2 hrs by SEM analysis; format: subcellular
[16] = tested on: Cell membrane; experiment: Induction of cell membrane permeability in Staphylococcus aureus assessed as bacterial aggregation into clusters at 2 times MIC measured after 30 mins by SEM analysis; format: subcellular
[17] = tested on: Cell membrane; experiment: Induction of cell membrane permeability in Staphylococcus aureus assessed as bacterial aggregation into breakage at 2 times MIC measured after 2 hrs by SEM analysis; format: subcellular
[18] = tested on: Cell membrane; experiment: Induction of cell membrane permeability in Staphylococcus aureus assessed as bacterial aggregation into breakage at 2 times MIC measured after 30 mins by SEM analysis; format: subcellular
[19] = tested on: Cell membrane; experiment: Induction of cell membrane permeability in Staphylococcus aureus assessed as bacterial collapse at 2 times MIC by SEM analysis; format: subcellular
[20] = tested on: Cell membrane; experiment: Induction of cell membrane permeability in Staphylococcus aureus assessed as bacterial adhesion at 2 times MIC by SEM analysis; format: subcellular
[21] = tested on: Cell membrane; experiment: Induction of cell membrane permeability in Escherichia coli assessed as bacterial breakage at 2 times MIC by SEM analysis; format: subcellular
[22] = tested on: Escherichia coli; experiment: Antimicrobial activity against Escherichia coli at 2 times MIC in presence of LPS preincubated for 1 hr followed by bacterial addition and measured after 6 hrs by LPS competitive inhibition assay; format: functional, organism-based
[23] = tested on: Cell membrane; experiment: Induction of Outer membrane permeabilization in Escherichia coli at 1 times MIC by NPN-dye based fluorescence analysis; format: subcellular
[24] = tested on: Cell membrane; experiment: Induction of Inner membrane permeabilization in Escherichia coli ML-35 ATCC […] measured every 5 mins for 120 mins by ONPG dye based assay; format: subcellular
[25] = tested on: Cell membrane; experiment: Induction of Inner membrane permeabilization in Escherichia coli ML-35 ATCC […] at 4 times MIC measured every 5 mins for 120 mins by ONPG dye based assay; format: subcellular
[26] = tested on: Cell membrane; experiment: Induction of Cytoplasmic membrane depolarization in Staphylococcus aureus at 4 times MIC measured for every 10 mins by DiSC3(5) dye based fluorescence method; format: subcellular
[27] = tested on: Cell membrane; experiment: Induction of Cytoplasmic membrane depolarization in Staphylococcus aureus measured for every 10 mins by DiSC3(5) dye based fluorescence method
[28] = tested on: Cell membrane; experiment: Induction of Cytoplasmic membrane depolarization in Escherichia coli at 1 to 4 times MIC measured for every 10 mins by DiSC3(5) dye based fluorescence method; format: subcellular
[29] = Acute toxicity in male balb/c mouse assessed as mortality at 25 to 50 mg/kg, ip measured after 50 mins by karber method; format: organism-based; settings: in vivo, dose 25-50 mg/kg
[30] = Acute toxicity in male balb/c mouse assessed as hepatocyte necrosis at 45.33 mg/kg, ip by H and E staining based analysis; format: organism-based; settings: in vivo
[31] = Acute toxicity in male balb/c mouse assessed as renal intracellular bleeding at 45.33 mg/kg, ip by H and E staining based analysis; format: organism-based; settings: in vivo
[32] = tested on: Staphylococcus aureus; experiment: Additive antibacterial activity against Staphylococcus aureus assessed as fractional inhibitory concentration index in presence of ciprofloxacin incubated for 18 hrs by checkerboard method; format: functional
[33] = tested on: Klebsiella pneumoniae; experiment: Bactericidal activity against Klebsiella pneumoniae ATCC 700603 assessed as bacterial eradication by measuring bacterial counts at 2 times MIC measured after 30 mins by Time killing assay relative to control; format: functional; settings: 0.5 h
[34] = tested on: Staphylococcus aureus; experiment: Additive antibacterial activity against Staphylococcus aureus assessed as fractional inhibitory concentration index in presence of polymyxin B incubated for 18 hrs by checkerboard method; format: functional
[35] = tested on: Escherichia coli; experiment: Additive antibacterial activity against Escherichia coli assessed as fractional inhibitory concentration index in presence of kanamycin incubated for 18 hrs by checkerboard method; format: functional
[36] = tested on: Cell membrane; experiment: Induction of cell membrane permeability in Staphylococcus aureus assessed as rupture of bacteria with leaked contents at 2 times MIC measured after 30 mins by SEM analysis; format: subcellular
[37] = tested on: Cell membrane; experiment: Induction of cell membrane permeability in Staphylococcus aureus assessed as agglutination with leaked contents at 2 times MIC measured after 2 hrs by SEM analysis; format: subcellular
[38] = tested on: Escherichia coli; experiment: Antimicrobial activity against Escherichia coli at 2 times MIC in presence of LPS at 64 uM preincubated for 1 hr followed by bacterial addition and measured after 6 hrs by LPS competitive inhibition assay; format: functional, organism-based; settings: time 7.0 hrs
[39] = tested on: Cell membrane; experiment: Induction of Inner membrane permeabilization in Escherichia coli ML-35 ATCC […] at 2 times MIC measured every 5 mins for 120 mins by ONPG dye based assay; format: subcellular
[40] = Acute toxicity in male balb/c mouse assessed as mortality at 63.2 to 100 mg/kg, ip measured after 7 days by karber method; format: organism-based; settings: in vivo, 168 h, dose 63.2-100 mg/kg, time 7 day
[41] = Acute toxicity in male balb/c mouse assessed as hepatocyte necrosis at 81.28 mg/kg, ip by H and E staining based analysis; format: organism-based; settings: in vivo
[42] = Acute toxicity in male balb/c mouse assessed as renal necrosis at 81.28 mg/kg, ip by H and E staining based analysis; format: organism-based; settings: in vivo

In the case of `N=C(N)NCCC[C@@H](NC(=O)CNC(=O)[C@H]1CCCN1C(=O)[C@@H](CCCNC(=N)N)NC(=O)[C@@H](Cc1ccccc1)NC(=O)[C@@H](CCCNC(=N)N)NC(=O)[C@@H](Cc1ccccc1)NC(=O)[C@@H](CCCNC(=N)N)NC(=O)[C@H](N)Cc1ccccc1)C(=O)N[C@H](Cc1ccccc1)C(=O)N[C@H](CCCNC(=N)N)C(=O)N[C@H](Cc1ccccc1)C(=O)N[C@H](CCCNC(=N)N)C(=O)N[C@H](Cc1ccccc1)C(N)=O`, the Activity [1] is reported as “Active”, the Activity [2] is reported as “Active” and the half-life [3] is reported as greater than 48 h. For the same compound, the “fractional inhibitory concentration index (FICI)” value [4] was 0.313, the Activity [5] was 100% and the Activity [6] was 100%. The inhibition [7] was “Dose-dependent-effect”, the inhibition [8] was “Active” and the “fractional inhibitory concentration index (FICI)” value [9] was 0.375. For the same compound, the “fractional inhibitory concentration index (FICI)” value [10] was 0.313, the “fractional inhibitory concentration index (FICI)” value [11] was 0.313 and the Activity [12] was “Active”. The Activity [13] was “Active”, the Activity [14] was “Active” and the Activity [15] was “Active”. For the same compound, the Activity [16] was “Active”, the Activity [17] was “Active” and the Activity [18] was “Active”. For the same compound, the Activity [19] was “Active”, the Activity [20] was “Active” and the Activity [21] was “Active”. For the same compound, the Activity [22] was “inactive”, the Activity [23] was “Active; Comparable Permeability To Polymyxin B Was Observed” and the Activity [24] was “Dose-dependent-effect”. The Activity [25] was “Active”, the Activity [26] was “Active; Comparable Depolarization To Valinomycin Was Observed” and the Activity [27] was “Dose-dependent-effect”. For the same compound, the Activity [28] was “Active”, the Activity [29] was “Toxic” and the Activity [30] was “Toxic”. For the same compound, the Activity [31] was “Toxic”.
With `N=C(N)NCCC[C@H](NC(=O)CNC(=O)[C@H]1CCCN1C(=O)[C@H](CCCNC(=N)N)NC(=O)[C@H](Cc1ccccc1)NC(=O)[C@H](CCCNC(=N)N)NC(=O)[C@H](Cc1ccccc1)NC(=O)[C@H](CCCNC(=N)N)NC(=O)[C@@H](N)Cc1ccccc1)C(=O)N[C@@H](Cc1ccccc1)C(=O)N[C@@H](CCCNC(=N)N)C(=O)N[C@@H](Cc1ccccc1)C(=O)N[C@@H](CCCNC(=N)N)C(=O)N[C@@H](Cc1ccccc1)C(N)=O` the Activity [1] was “Active”, the Activity [2] was “Active” and the half-life [3] was 3.03 h. For the same compound, the “fractional inhibitory concentration index (FICI)” value [32] was 0.563, the Activity [33] was 100% and the inhibition [7] was “Dose-dependent-effect”. The “fractional inhibitory concentration index (FICI)” value [34] was 0.625, the “fractional inhibitory concentration index (FICI)” value [35] was 0.563 and the Activity [36] was “Active”. For the same compound, the Activity [37] was “Active”, the Activity [21] was “Active” and the Activity [38] was “inactive”. The Activity [24] was “Dose-dependent-effect”, the Activity [39] was “Active” and the Activity [27] was “Dose-dependent-effect”. For the same compound, the Activity [40] was “Toxic”, the Activity [41] was “Toxic” and the Activity [42] was “Toxic”.
